From US20260070917A1, “CYCLIN DEPENDENT KINASE DEGRADERS AND METHODS OF USE THEREOF” (Differentiated Therapeutics Inc, priority 2023, published 2026)

Assays:
CDK2 = molecular target: T1, CDK2 (Homo sapiens, UniProt P24941); assay: HiBit Assay Protocol for CDK2 (HIBIT protein quantification, degradation); assay type: cell-based; conditions: HEK293-CDK2-Hibit cells, compound treatment for 6 hours; for DC50: ABS DC50
T1 construct: host or cells: HEK293-CDK2-Hibit
Procedure: HiBit Assay Protocol for CDK2
• 1. The culture medium for HEK293-CDK2-Hibit cells was prepared using DMEM with 10% FBS. • 2. Cells were cultivated in T-75 flasks in a cell culture incubator set at 37° C., 5% CO2, 95% relative humidity. Cells were allowed to reach 80-90% confluence before detaching and splitting. • 3. Cultivated cells were rinsed in T-75 flasks with 5 mL PBS. Aspirate off Added was 1.5 mL trypsin, and the cells were incubated at 37° C. for approximately 5 minutes or until the cells detached and floated. • 4. Trypsin was inactivated by adding excess serum containing medium. • 5. Cells were harvested from flask into cell culture medium and then the cell number was counted. HEK293-CDK2-Hibit cells were seeded into 384-well plate (cell density: 1.6×10^5 cells/well/50 uL medium) in DMEM medium according to the plate map below and incubated overnight at 37° C. and 5% CO2. • Note: Cell Cultured Medium: 90% DMEM+10% FBS+1% Penicillin-Streptomycin Liquid
(§1) • 1. Test compounds were dissolved at 10 mM DMS stock solution. 45 uL of stock solution was transferred to a 384 pp-plate. A 3-fold, 10-point dilution was performed via transferring 15 uL compound into 30 uL DMSO by using TECAN liquid handler. • 2. The plates were spinned at room temperature at 1,000 RPM for 1 minute. • 3. 50 nL of diluted compound was transferred from compound source plate into the cell plate by Echo. • 4. After compound treatment for 6 hours, the plate was removed from incubators and equilibrated at room temperature for 15 minutes. The HiBit reagent was prepared, consisting of the following ratios: 10 mL of Nano-Glo®-HiBiT Lytic Buffer, 200 μL of Nano-Glo®-HiBiT Lytic Substrate and 100 uL of LgBiT Protein, mixed thoroughly. 20 μL of HiBit reagent was added into each well and the plates were spinned at room temperature at 1,000 RPM for 1 minute to be detected. Then the plates were shaken at 600 RPM at room temperature for 20 minutes, and read by EnVision. • 5. The inhibition activity was calculated following the formula below:
(§2) [formula] • Note: Where HC is obtained from cells treated with […] only; LC is obtained from culture medium only. • 6. ABS DC50 was calculated by fitting the Curve using Xlfit (v5.3.1.3), equation 201: […]

CCNE1 = molecular target: T2, CCNE1 (Homo sapiens, UniProt P24864); assay: HiBit Assay Protocol for CCNE1 (HIBIT protein quantification, degradation); assay type: cell-based; conditions: HEK293-CCNE1-Hibit cells, compound treatment for 6 hours
T2 construct: host or cells: HEK293-CCNE1-Hibit
T2 sequence (P24864 whole entry): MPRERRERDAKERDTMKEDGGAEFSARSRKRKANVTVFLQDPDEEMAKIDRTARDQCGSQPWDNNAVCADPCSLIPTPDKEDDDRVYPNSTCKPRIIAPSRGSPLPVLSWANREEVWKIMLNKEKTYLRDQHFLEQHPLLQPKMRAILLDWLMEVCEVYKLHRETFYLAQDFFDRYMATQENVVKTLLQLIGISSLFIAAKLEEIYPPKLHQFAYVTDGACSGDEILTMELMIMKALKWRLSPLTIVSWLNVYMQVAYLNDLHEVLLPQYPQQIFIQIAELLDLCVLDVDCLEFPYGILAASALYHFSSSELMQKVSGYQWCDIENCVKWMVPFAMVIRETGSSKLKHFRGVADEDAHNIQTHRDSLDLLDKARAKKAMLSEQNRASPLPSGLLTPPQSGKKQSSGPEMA
Procedure: HiBit Assay Protocol for CCNE1
• 1. The culture medium for HEK293-CCNE1-Hibit cell was prepared using EMEM with […]. • 2. Cells were cultivated in T-75 flasks in a cell culture incubator set at 37° C., 5% CO2, 95% relative humidity. Cells were allowed to reach 80-90% confluence before detaching and splitting. • 3. Cultivated cells were rinsed in T-75 flasks with 5 mL PBS. Aspirate off Added was 1.5 mL trypsin, and the cells were incubated at 37° C. for approximately 5 minutes or until the cells detached and floated. • 4. Trypsin was inactivated by adding excess serum containing medium. • 5. Cells were harvested from flask into cell culture medium and then the cell number was counted. HEK293-CCNE1-Hibit cell were seeded into 384-well plate (cell density: 1.6×10^5 cells/well/50 uL medium) in EMEM medium according to the plate map below and incubated overnight at 37° C. and […]. • Note: Cell Cultured Medium: 90% EMEM+10% FBS+1% Penicillin-Streptomycin Liquid
as §1, with “mM DMSO” for “mM DMS”, “45 μL” for “45 uL”, “100 μL” for “100 uL”, “Protein, mix” for “Protein, mixed”
as §2

Structure (SMILES) | CDK2 HIBIT Protein Quantification Maximum (CDK2) | DC50 (CDK2) | CCNE1 HIBIT Protein Quantification Maximum (CCNE1)
CC1CCCC1N1C(=O)C2(CC2)c2cnc(NC3CCN(S(=O)(=O)C4CCN(C(=O)CCCCCc5cccc6c5n(C)c(=O)n6C5CCC(=O)NC5=O)C4)CC3)nc21 (centres unmarked) [Compound 1, 3-{3-Methyl-4-[6-(3-{4-[7′-(2-methylcyclopentyl)-6′-oxospiro[cyclopropane-1,5′-pyrrolo[2,3-d]pyrimidin]-2′-ylamino]piperidin-1-ylsulfonyl}pyrrolidin-1-yl)-6-oxohexyl]-2-oxo-1,3-benzodiazol-1-yl}piperidine-2,6-dione] | 70.2% | 16 nM | 30.9%
CC1CCCC1N1C(=O)C2(CC2)c2cnc(NC3CCN(S(=O)(=O)N4CCC5(CCCN5C(=O)CCCCCCCc5cccc6c5n(C)c(=O)n6C5CCC(=O)NC5=O)C4)CC3)nc21 (centres unmarked) [Compound 2, 3-{3-Methyl-4-[8-(7-{4-[7′-(2-methylcyclopentyl)-6′-oxospiro[cyclopropane-1,5′-pyrrolo[2,3-d]pyrimidin]-2′-ylamino]piperidin-1-ylsulfonyl}-1,7-diazaspiro[4.4]nonan-1-yl)-8-oxooctyl]-2-oxo-1,3-benzodiazol-1-yl}piperidine-2,6-dione] | 45.7% |  | 41.1%
CC1CCCC1N1C(=O)C2(CC2)c2cnc(NC3CCN(S(=O)(=O)N4CC5(CCCN(C(=O)CCCCCCCc6cccc7c6n(C)c(=O)n7C6CCC(=O)NC6=O)C5)C4)CC3)nc21 (centres unmarked) [Compound 3] | 34.6% |  | 19.4%
CC1CCCC1N1C(=O)C2(CC2)c2cnc(NC3CCN(S(=O)(=O)N4CC5(CCN(C(=O)CCCCCCCc6cccc7c6n(C)c(=O)n7C6CCC(=O)NC6=O)CC5)C4)CC3)nc21 (centres unmarked) [Compound 4] | 56.5% | 6.7 nM | 21.2%
CC1CCCC1N1C(=O)C2(CC2)c2cnc(NC3CCN(S(=O)(=O)N4CC5CN(C(=O)CCCCCCCc6cccc7c6n(C)c(=O)n7C6CCC(=O)NC6=O)CC54)CC3)nc21 (centres unmarked) [Compound 5] | 24.9% |  | 21.9%
CC1CCCC1N1C(=O)C2(CC2)c2cnc(NC3CCN(S(=O)(=O)C4CCN(C(=O)CCCCCCCc5cccc6c5n(C)c(=O)n6C5CCC(=O)NC5=O)C4)CC3)nc21 (centres unmarked) [Compound 6] | 66.2% | 14.6 nM | 30%
CC1CCCC1N1C(=O)C2(CC2)c2cnc(NC3CCN(S(=O)(=O)N4CCN(C(=O)CCCc5ccc6c(c5)n(C)c(=O)n6C5CCC(=O)NC5=O)CC4)CC3)nc21 (centres unmarked) [Compound 7] | 37.9% |  | 21.2%
CC1CCCC1N1C(=O)C2(CC2)c2cnc(NC3CCN(S(=O)(=O)N4CCN(C(=O)CCCCc5cccc6c5n(C)c(=O)n6C5CCC(=O)NC5=O)CC4)CC3)nc21 (centres unmarked) [Compound 8] | 59.2% | 8.8 nM | 24.7%
CC1CCCC1N1C(=O)C2(CC2)c2cnc(NC3CCN(S(=O)(=O)N4CC5(CCN(C(=O)CCCCc6cccc7c6n(C)c(=O)n7C6CCC(=O)NC6=O)CC5)C4)CC3)nc21 (centres unmarked) [Compound 9] | 48.4% |  | 
CC1CCCC1N1C(=O)C2(CC2)c2cnc(NC3CCN(S(=O)(=O)N4CCC5(CCN(C(=O)CCCCc6cccc7c6n(C)c(=O)n7C6CCC(=O)NC6=O)C5)C4)CC3)nc21 (centres unmarked) [Compound 10] | 38.9% |  | 
CC1CCCC1N1C(=O)C2(CC2)c2cnc(NC3CCN(S(=O)(=O)C4CCN(C(=O)CCCCc5cccc6c5n(C)c(=O)n6C5CCC(=O)NC5=O)C4)CC3)nc21 (centres unmarked) [Compound 11] | 49.5% |  | 23.6%
CC1CCCC1N1C(=O)C2(CC2)c2cnc(NC3CCN(S(=O)(=O)N4CCN(C(=O)CCCCc5ccc6c(c5)n(C)c(=O)n6C5CCC(=O)NC5=O)CC4)CC3)nc21 (centres unmarked) [Compound 12] | 34.6% |  | 16.9%
CC1CCCC1N1C(=O)C2(CC2)c2cnc(NC3CCN(S(=O)(=O)N4CCC(CN5CCC(c6cccc7c6n(C)c(=O)n7C6CCC(=O)NC6=O)CC5)CC4)CC3)nc21 (centres unmarked) [Compound 14, 3-(3-Methyl-4-{1-[(1-{4-[7′-(2-methylcyclopentyl)-6′-oxospiro[cyclopropane-1,5′-pyrrolo[2,3-d]pyrimidin]-2′-ylamino]piperidin-1-ylsulfonyl}piperidin-4-yl)methyl]piperidin-4-yl}-2-oxo-1,3-benzodiazol-1-yl)piperidine-2,6-dione] | 57.4% | 4.56 nM | 37.7%

Other lines, results leading:

CDK2 HIBIT Protein Quantification Maximum (CDK2) | DC50 (CDK2) | CCNE1 HIBIT Protein Quantification Maximum (CCNE1) | Structure (SMILES)
82% | 3.58 nM | 47% | Cn1nc(N2CCC(=O)NC2=O)c2ccc(C3CCN(Cc4cccc(S(=O)(=O)N5CCC(Nc6ncc7c(n6)N([C@@H]6CCC[C@@H](O)C6)C(=O)C76CCC6)CC5)c4)CC3)cc21 [Compound 174, 1-[6-(1-{[3-(4-{7′-[(1R,3R)-3-Hydroxycyclohexyl]-6′-oxospiro[cyclobutane-1,5′-pyrrolo[2,3-d]pyrimidin]-2′-ylamino}piperidin-1-ylsulfonyl)phenyl]methyl}piperidin-4-yl)-1-methylindazol-3-yl]-1,3-diazinane-2,4-dione]
88% | 2.62 nM | 47% | CC1CN(C(C)c2cccc(S(=O)(=O)N3CC[C@H](Nc4ncc5c(n4)N([C@@H]4CCC[C@@H](O)C4)C(=O)C54CC4)[C@H](F)C3)c2)CCC1c1ccc2c(N3CCC(=O)NC3=O)nn(C)c2c1 (some centres unmarked) [Compound 189]
70% | 13.6 nM | 27% | CC(C)C1CC(c2ccc3c(N4CCC(=O)NC4=O)nn(C)c3c2)CCN1C(C)c1cccc(S(=O)(=O)N2CC[C@H](Nc3ncc4c(n3)N([C@@H]3CCC[C@@H](O)C3)C(=O)C43CC3)[C@H](F)C2)c1 (some centres unmarked) [Compound 190]
85% | 10.3 nM | 48% | C[C@H](c1cccc(S(=O)(=O)N2CC[C@H](Nc3ncc4c(n3)N([C@@H]3CCC[C@@H](O)C3)C(=O)C43CC3)[C@H](F)C2)c1)N1CCN(c2ccc3c(N4CCC(=O)NC4=O)nn(C)c3c2)C[C@@H]1C [Compound 193]
94% | 3.86 nM | 42% | C[C@H]1CN(c2ccc3c(N4CCC(=O)NC4=O)nn(C)c3c2)CCN1[C@@H](C)c1cccc(S(=O)(=O)N2CC[C@H](Nc3ncc4c(n3)N([C@@H]3CCC[C@@H](O)C3)C(=O)C43CC3)[C@H](F)C2)c1 [Compound 194]
91% | 4.7 nM | 47% | C[C@H](c1cc(S(=O)(=O)N2CC[C@H](Nc3ncc4c(n3)N([C@@H]3CCC[C@@H](O)C3)C(=O)C43CC3)[C@H](F)C2)ccc1F)N1CCN(c2ccc3c(N4CCC(=O)NC4=O)nn(C)c3c2)CC1 [Compound 210]
